Data from US7569608B2, “Pentanoic acid derivatives” (Ono Pharmaceutical Co., Ltd., priority 1993, dated 2009).

Tests used:
GABAA receptor [1] = assay: Experiment 2: regeneration of GABAA receptor responses in reactive astrocytes; type: cell-based, rat; conditions: 14 DIV after serial passages, control 8 ± 6
Protocol: (§1) Preparation of astrocyte cultures: After removing the meninges, isolated cerebrum of neonatal rats (age: day 1) were placed on frosted glass-slides and minced. The sample was then digested with trypsin (0.25%) and DNase 1 (0.02%) and suspended in 10% FCS-DMEM before centrifugation. After resuspending in 10% FCS-DMEM, the suspension was dispersed in dishes and cultured at 37° C. under 5% CO2 atmosphere. Non-adherent cells were removed from the dishes after agitation/washing on post-culture 24 hours. Note that the adherent cell population was composed of more than 95% of GFAP-positive cells.
(§2) GFAP contents and GABAA receptor responses: The improvement effects on astrocyte functions were evaluated from the following indices: inhibition derived from the increase in GFAP content and inhibition in the disappearance of GABAA receptor responses. Thus, sodium valproate (Sigma Chem. Co., U.S.A.) was added on 1 DIV followed by whole-cell mode voltage-clamp method on 7 DIV-to measure the GABA (3×10^−5 M)-induced Cl^− current. The Cl^− current was taken as an index for the GABA response. Furthermore, GFAP contents were determined by the ELISA method on 11 DIV.
Astrocytes were prepared and cultured in a manner similar to Experiment 1. On 14 DIV, reactive astrocytes were subjected to a serial passage (10^5 cells/dish). The thus adherent reactive astrocytes were washed, and transferred to culture media containing the present effectively developed compound(s) or invention. On 14 DIV after serial passages, GABAA receptor responses were tested according to procedures designated in Experiment 1.

astrocytes = assay: Experiment 1: GFAP contents of cultured astrocytes (ELISA); type: cell-based, rat; conditions: added on 1 DIV, ELISA on 11 DIV, ratio of the control group (control 100.0)
Protocol: as §1, §2
The GFAP contents were expressed as a ratio of the control group.

GABAA receptor [2] = assay: Experiment 1: GABAA receptor responses of cultured astrocytes (GABA-induced Cl- current, whole-cell voltage-clamp); type: cell-based, rat; conditions: added on 1 DIV, measured on 7 DIV, GABA 3×10^−5 M-induced Cl− current, control 90 ± 43
Protocol: as §1, §2

neurons = assay: Experiment 3: suppression of cell death in neurons-astrocytes co-culture; type: cell-based, rat; conditions: 3 mM, neurons co-cultured with astrocytes
Protocol: Astrocytes, prepared in a manner similar to that of Experiment 1, were cultured for 14 days. Previously prepared neurons (3×10^4 cells/well), isolated from cerebrum of 19-day old fetus rats, were added to the cultured astrocytes (3×10^5 cells/well) and allowed to grow. During the culture process, survival rates and neuronal dendrite extension/ramification of neurons were observed. Note that, sodium valproate (3 mM) and astrocytes were initially added to the neurons concomitantly, and freshly prepared similar culture media containing the invented compound (3 mM) were subsequently added at 3˜4-day intervals.

[3] = tested on: experimental brain ischemia model; assay: Experiment 4: experimental brain ischemia, conditional avoidance experiment; type: in vivo, rat; conditions: 300 mg/kg i.p. once daily for 4 days after deligation; 10 trials within 2 days; ischemic reference 2.8±0.8, normal 6.1±0.7, sham 4.8±0.8
Protocol: Establishing the experimental brain ischemia model: Vertebral arteries of pentobarbital-anesthetized rats were bilaterally coagulated, and a period of 7 days was allowed for recovery. The previously surgically exposed bilateral common carotid arteries of ischemic rats were mechanically ligated for 20 min. Immediately after deligation, the rats were once daily injected i.p. with sodium valproate (300 mg/kg) for 4 consecutive days. On deligation day 5˜6, mobility aspects in the conditional avoidance experiment were monitored.
Mobility aspects of the conditional avoidance experiment: The step-up model of the dark/light box was used. Animals placed in the dark section of the grid-floored box with the connecting door closed were allowed to accustomed to the environment for 1 minute. The door was then opened for 10 seconds. Rats that stepped up to the lighted section via the opened door were considered positive in the conditional avoidance test. Animals categorized as negative in the test were placed in the dark section with the door closed for 10 seconds prior to subjecting them to electric foot shock at 2 mA for 50 seconds. […] The above procedure was repeated 5 trials per day at 30-minutes intervals. A total of 10 trials within 2 days were attempted.

Row | SMILES | GABAA receptor responses (means ± S.E.) (GABAA receptor [1]; 3.0 mM) | GABAA receptor responses (means ± S.E.) (GABAA receptor [1]; 0.3 mM) | GABAA receptor responses (means ± S.E.) (GABAA receptor [1]; 1.0 mM) | further results
1 | CCCC(Cl)(CCC)C(=O)OC [Example 9] | 467 ± 187 pA |  |  | 
2 | CCCC(CCCCC(F)F)C(=O)[O-].[Na+] (centres unmarked) [Example 2] |  | 193 ± 103 pA | 628 ± 227 pA | 
3 | CCCC(CCCCc1ccccc1)C(=O)[O-].[Na+] (centres unmarked) [Example 7(8)] |  |  | 59.0 ± 20.6 pA | 
4 | CCCC(CCCC(F)(F)F)C(=O)[O-].[Na+] (centres unmarked) [Example 2(8)] | 808.6 ± 325.4 pA |  | 470.6 ± 124.9 pA | 
5 | CCCCCCC(CCC)C(=O)[O-].[Na+] (centres unmarked) [Example 7(33)] |  | 1260 ± 521 pA |  | GABAA receptor responses (means ± S.E.) (GABAA receptor [1]; 0.03 mM): 40 ± 23 pA; GABAA receptor responses (means ± S.E.) (GABAA receptor [1]; 0.1 mM): 237 ± 69 pA
6 | CCCC(CCCCCCF)C(=O)[O-].[Na+] (centres unmarked) [Example 7(1)] |  | 260.0 ± 47.3 pA |  | 
7 | CCCC(C(=O)[O-])C1CCCCC1.[Na+] (centres unmarked) [Example 7(26)] | 344.7 ± 342.5 pA |  |  | 
8 | CCCC(CCCC(C)C)C(=O)[O-].[Na+] (centres unmarked) [Example 7(18)] |  |  | 658.6 ± 440.7 pA | 
9 | CCCC(CCC1CCCCC1)C(=O)[O-].[Na+] (centres unmarked) [Example 7(4)] |  | 163.0 ± 60.4 pA |  | 
10 | CCCC(CCCCOC)C(=O)[O-].[Na+] (centres unmarked) [Example 7(14)] | 285.7 ± 103.6 pA |  |  | 
11 | CCCC(CCCOc1ccccc1)C(=O)[O-].[Na+] (centres unmarked) [Example 7(9)] | 226.3 ± 60.5 pA | 512.1 ± 233.1 pA |  | 
12 | CCCC(CCCCCC(F)F)C(=O)[O-].[Na+] (centres unmarked) [Example 2(2)] |  | 527 ± 201 pA |  | GABAA receptor responses (means ± S.E.) (GABAA receptor [1]; 0.1 mM): 114 ± 81 pA
13 | C=CCC(CCC)C(=O)[O-].[Na+] (centres unmarked) [Example 7(28)] | 122 ± 44 pA |  |  | 
14 | CCCC(CCCCF)C(=O)[O-].[Na+] (centres unmarked) [Example 2(6)] | 528.0 ± 160.2 pA | 184.0 ± 118.1 pA |  | 
15 | CCCC(CCCCCC(F)(F)F)C(=O)[O-].[Na+] (centres unmarked) [Example 2(9)] |  | 236.4 ± 85.5 pA |  | 
16 | CCCCCCCC(CCC)C(=O)O (centres unmarked) [Example 2-PNA, 2-propylnonanic acid] |  | 380 ± 124 pA |  | GABAA receptor responses (means ± S.E.) (GABAA receptor [1]; 0.03 mM): 85 ± 41 pA; GABAA receptor responses (means ± S.E.) (GABAA receptor [1]; 0.1 mM): 107 ± 50 pA
17 | CCCC(CCCF)C(=O)[O-].[Na+] (centres unmarked) [Example 2(5)] | 326 ± 148 pA |  |  | 
18 | CCCCCC(CCC)C(=O)[O-].[Na+] (centres unmarked) [Example 7(30)] |  | 233 ± 90 pA | 675 ± 201 pA | 
19 | CCCC[C@@H](CC)C(=O)O (racemic) [Example 11] | 281 ± 174 pA | 35 ± 15 pA | 190 ± 134 pA | 
20 | CCCCC(CCC)C(=O)[O-].[Na+] (centres unmarked) [Example 7(31)] | 590 ± 180 pA | 51 ± 28 pA | 565 ± 278 pA | 
21 | CC/C=C(\CCC)C(=O)[O-].[Na+] [Example 13] | 171 ± 55 pA |  |  | 
22 | CCCCCCCCC(CCC)C(=O)[O-].[Na+] (centres unmarked) [Example 7(32)] |  |  |  | GABAA receptor responses (means ± S.E.) (GABAA receptor [1]; 0.1 mM): 48 ± 20 pA
23 | CCCC(CCCCC(F)(F)F)C(=O)[O-].[Na+] (centres unmarked) [Example 2(10)] |  | 800.0 ± 415.6 pA |  | 
24 | CCCC(CCCCCCCF)C(=O)[O-].[Na+] (centres unmarked) [Example 7(2)] |  | 730.0 ± 226.4 pA |  | 
25 | CCCC(CCC)C(=O)[O-].[Na+] [VPA, sodium valproate] | 1263 ± 303 pA | 37 ± 26 pA | 193 ± 141 pA | Ratio of increase in GFAP contents (astrocytes; 0.3 mM): 30.6%; Ratio of increase in GFAP contents (astrocytes; 1.0 mM): 36.3%; Ratio of increase in GFAP contents (astrocytes; 3.0 mM): 44.3%; GABAA receptor responses (means ± S.E.) (GABAA receptor [2]; 0.3 mM): 254 ± 106 pA; GABAA receptor responses (means ± S.E.) (GABAA receptor [2]; 1.0 mM): 432 ± 98 pA; GABAA receptor responses (means ± S.E.) (GABAA receptor [2]; 3.0 mM): 1301 ± 156 pA; Survival rates (on 22 days) (neurons; control <10%): 60-70%^; dendrite generation in the neurons (neurons; not observed in control): detected; conditional avoidance response, count (frequencies) [3]: 5.3±0.8
26 | CCCC(CCCCCF)C(=O)[O-].[Na+] (centres unmarked) [Example 7] |  | 213.1 ± 150.1 pA | 661.7 ± 306.3 pA | 
27 | CCCC(CCCCC(C)C)C(=O)[O-].[Na+] (centres unmarked) [Example 7(17)] |  | 259.0 ± 83.7 pA |  | 
28 | CCCCCOC(CCC)C(=O)[O-].[Na+] (centres unmarked) [Example 7(37)] | 595 ± 190 pA | 139 ± 52 pA |  | 
29 | CCCC(CCC(C)C)C(=O)[O-].[Na+] (centres unmarked) [Example 7(16)] |  | 105 ± 65 pA | 417 ± 140 pA | 
30 | CCCC(CCC(F)(F)F)C(=O)[O-].[Na+] (centres unmarked) [Example 2(12)] | 1109 ± 227 pA |  | 672 ± 242 pA | 
